Read-outs that look alike come from different tables or passages of the source.
Columns and labels:
estrogen receptor = target: T1, estrogen receptor (Homo sapiens, UniProt P03372); assay: Luciferase reporter assay (ERE-luciferase transactivation) in T47D-KBluc cells; assay type: cell-based; settings: for LOEC (lowest-observed-effect-concentration) for transcription in luciferase assay: T47D-KBluc, 24 h treatment
T1 sequence (P03372 1-595): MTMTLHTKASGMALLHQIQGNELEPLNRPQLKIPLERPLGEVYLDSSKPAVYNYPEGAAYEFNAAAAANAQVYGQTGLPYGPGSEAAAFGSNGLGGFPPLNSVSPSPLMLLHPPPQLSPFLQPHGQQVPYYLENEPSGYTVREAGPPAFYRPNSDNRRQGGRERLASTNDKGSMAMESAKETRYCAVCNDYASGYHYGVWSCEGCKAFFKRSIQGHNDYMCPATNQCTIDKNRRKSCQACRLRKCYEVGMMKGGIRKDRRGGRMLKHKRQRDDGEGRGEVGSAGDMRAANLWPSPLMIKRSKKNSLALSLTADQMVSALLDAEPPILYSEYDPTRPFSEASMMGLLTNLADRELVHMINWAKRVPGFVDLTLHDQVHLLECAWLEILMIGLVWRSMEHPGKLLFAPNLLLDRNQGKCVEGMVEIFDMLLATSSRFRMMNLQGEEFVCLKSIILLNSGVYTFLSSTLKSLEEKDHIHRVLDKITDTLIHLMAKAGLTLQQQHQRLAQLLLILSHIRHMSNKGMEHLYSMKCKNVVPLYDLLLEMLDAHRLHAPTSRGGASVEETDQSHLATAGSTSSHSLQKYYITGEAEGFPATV

[1] = development and reproductive toxicity assays; cited from earlier work
ER [2] = target: T2, ER (Homo sapiens, UniProt P03372); settings: 10 μM; cited from earlier work
T2 sequence (P03372 1-595): T1 sequence (P03372 1-595)

[3] = Acute oral exposure of ovariectomized mice: uterine weight; assay type: in vivo, mouse; settings: 4 days, BP3 3000, PP 10000 μg/kg/d
Source text: Animal Treatment: Forty mature female mice (8 weeks old) BALB/c mice were purchased from Jackson Laboratory and housed in temperature-controlled facilities with a 12-hour alternating day/night light cycle and fed LabChow 5058 ad libitum. All procedures were in accordance with the national guidelines for the care and use of animals and approved by the University of Massachusetts Amherst's Institutional Animal Care and Use Committee.
The mice were ovariectomized before treatment. Briefly, each mouse was anaesthetized with a mix of isofluorance and oxygen. The flanks were shaved, sterilized with betadine and cleaned with alcohol. An incision was made to the skin on the right flank. The underlying muscle layer was nicked to reveal a small hole through which ovary was pulled out by grasping the periovarian fat. A Serrifin clamp was used to hold the ovary. After making sure the blood vessels were constricted to prevent […], the ovary was cut from the uterine horn. The periovarian fat was restored into the peritoneum. The peritoneum was closed with one or two stiches and the skin was closed with 9 mm wound clips. The procedure was repeated on the contralateral side. The mouse was monitored for a week post-procedure and wound clips were removed after 10 days. […]

76N-Tert-ESR1 cell line [4] = settings: human, 5 µM
AREG and PGR = assay: RT-qPCR of endogenous ER target genes AREG and PGR in T47D and MCF-7 cell lines; assay type: cell-based, human; settings: for induction of endogenous ER target genes AREG and PGR: 1 μM, T47D and MCF-7; for transcription by endogenous gene expression: 5 μM BP3, 1 μM PP
76N-Tert-ESR1 cell line [5] = assay: S9.6 immunostaining (R-loops) in 76N-Tert-ESR1 cells induced with doxycycline; settings: 76N-Tert-ESR1 after induction of ERα with doxycycline, 5 μM
ER [6] = target: T2, ER; design: host or cells: MCF-7; settings: MCF-7, 1 μM; cited from earlier work
[7] = also printed as 200 μg/L; cited from earlier work
[8] = system: normal human keratin cell lines; settings: cited from earlier work

Row | SMILES | LOEC (lowest-observed-effect-concentration) for transcription in luciferase assay (estrogen receptor) [µM] | no-adverse-effect-level (NOAEL) dose [1] [µg/kg/day] | induction of gene expression (ERE-CAT reporter) (ER [2]) [fold] | uterine weights compared to the control treatment [3] | nuclear S9.6 foci (76N-Tert-ESR1 cell line [4]) | concentration at which transcriptional response is observed (AREG and PGR) | induction of endogenous ER target genes AREG and PGR (AREG and PGR) | transcription by endogenous gene expression (AREG and PGR) | nuclear S9.6 foci (76N-Tert-ESR1 cell line [5]) | Relative Transactivation Activity at 90%ile or 95%ile (% RTA vs E2) (estrogen receptor; at 95%ile urine concentration of non-pregnant women) [%] | Relative Transactivation Activity at 90%ile or 95%ile (% RTA vs E2) (estrogen receptor; at 95%ile urine concentration of pregnant women) [%] | maximum relative transactivation activity (RTA) compared to 10 nM E2 (estrogen receptor; maximum) [%] | ER agonism in transactivation and proliferation assays (ER [6]) | serum level following exposure in women [7] | concentration inducing γH2AX foci [8] [µM]
1 | CCCOC(=O)c1ccc(O)cc1 [PP, propyl parahydroxybenzoate] | 0.5 | 10000 | 1.3 | not sufficient | increased number of nuclear S9.6 foci significantly over vehicle-treated control | greater than 5 μM | poor agonists | no significant increase in transcription | – | – | – | – | – | – | –
2 | COc1ccc(C(=O)c2ccccc2)c(O)c1 [BP3, 2-Hydroxy-4-methoxybenzophenone] | 5 | 3000 | – | not sufficient | – | greater than 5 μM | poor agonists | no significant increase in transcription | increased number of nuclear S9.6 foci significantly over vehicle-treated control | 18.91 ± 6.62 | 27.16±6.2 | 37 | weak agonist | approximately 0.87 μM | 10

Reference: patent publication US12590950B2, “Methods for predicting ER-mediated DNA damage” (UNIVERSITY OF MASSACHUSETTS, priority 2019, dated 2026)
